Test systems include A549 NSCLC; BT-549 breast; CCRF-CEM leukemia; EKVX NSCLC; HCT-116 colon; HOP-62 NSCLC; HT29 colon; LOX IMVI melanoma; MDA-N; NCI-H226 lung; OVCAR-8 ovarian; SK-MEL-28 melanoma; SK-MEL-5 melanoma; TK-10 renal; UACC-257 melanoma; UO-31 renal; SK-OV-3 ovarian; SNB-19 CNS.
What all share (experiment): inhibition of tumour cell growth, NCI panel, 48 h

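Protocol summary: plate cells (96-well), add compound at 5 concentrations, incubate 48 h, interpolate endpoints linearly. TGI: total growth inhibition.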

As to `Nc1nc(Cl)cc(NC2(CO)CCC2)n1`, the TGI in the assay on A549 NSCLC, with BT-549 breast, in the assay on CCRF-CEM leukemia, in the assay with EKVX NSCLC, with HCT-116 colon and in the assay with HOP-62 NSCLC was more than 100 µM each time. Besides, the TGI in the assay with HT29 colon, in the assay with LOX IMVI melanoma, with MDA-N, with NCI-H226 lung, with OVCAR-8 ovarian and in the assay with SK-MEL-28 melanoma was more than 100 µM in each case. For the same compound, the TGI in the assay on SK-MEL-5 melanoma, in the assay on TK-10 renal, in the assay with UACC-257 melanoma and in the assay with UO-31 renal was more than 100 µM in each case.

For the compound `OCCN(/N=C\c1ccc2ccccc2c1)C1=NCCN1`, the TGI is more than 100 µM with A549 NSCLC; more than 100 µM with BT-549 breast; 71.4 µM in the assay with CCRF-CEM leukemia; more than 100 µM in the assay with EKVX NSCLC; 79.9 µM with HCT-116 colon; more than 100 µM in the assay with HOP-62 NSCLC. Further, the TGI in the assay on HT29 colon was 89 µM; in the assay with LOX IMVI melanoma, 30.6 µM; in the assay with MDA-N it was 32.4 µM; in the assay with NCI-H226 lung, 36.1 µM; with OVCAR-8 ovarian, more than 100 µM; in the assay with SK-MEL-28 melanoma, 35.3 µM. Further, the TGI with SK-MEL-5 melanoma was 33.1 µM; in the assay on SK-OV-3 ovarian it was more than 100 µM; with SNB-19 CNS it was more than 100 µM; with TK-10 renal, more than 100 µM; in the assay on UO-31 renal, more than 100 µM.

For the compound `Cc1n[nH]c(=O)n1/N=C\c1ccccc1`, the TGI with A549 NSCLC, in the assay with BT-549 breast, with CCRF-CEM leukemia, in the assay with EKVX NSCLC, with HCT-116 colon and in the assay on HOP-62 NSCLC was more than 100 µM each time. In addition, the TGI in the assay on HT29 colon, with LOX IMVI melanoma, in the assay on MDA-N, with NCI-H226 lung, in the assay on OVCAR-8 ovarian and in the assay with SK-MEL-28 melanoma was more than 100 µM each time. For the same compound, the TGI in the assay on SK-MEL-5 melanoma, in the assay on TK-10 renal, in the assay with UACC-257 melanoma and in the assay on UO-31 renal was more than 100 µM throughout.

Turning to `COc1ccc(C2C(C#N)=C(S)N(C3OC(COC(C)=O)C(OC(C)=O)C(OC(C)=O)C3OC(C)=O)C(c3ccccc3)=C2C(C)=O)cc1` (centres undefined), the TGI with A549 NSCLC, with BT-549 breast, with CCRF-CEM leukemia, with HCT-116 colon, in the assay with HOP-62 NSCLC and in the assay with HT29 colon was more than 100 µM throughout. Besides, the TGI in the assay with LOX IMVI melanoma, in the assay on MDA-N, with NCI-H226 lung, in the assay with OVCAR-8 ovarian, in the assay with SK-MEL-28 melanoma and in the assay with SK-MEL-5 melanoma was more than 100 µM each time. For the same compound, the TGI in the assay on SNB-19 CNS was more than 100 µM; in the assay on TK-10 renal, more than 100 µM; in the assay on UACC-257 melanoma, more than 100 µM; with UO-31 renal, 99.5 µM.

Regarding `Cn1c(CO)ccc1-c1ccc(-c2ccc[se]2)[se]1`, the TGI in the assay with A549 NSCLC is more than 100 µM; in the assay on BT-549 breast, more than 81.4 µM; in the assay with CCRF-CEM leukemia, more than 60.6 µM; with EKVX NSCLC, more than 100 µM; with HOP-62 NSCLC it was 55.1 µM; in the assay on HT29 colon, more than 100 µM. Moreover, the TGI was more than 100 µM with LOX IMVI melanoma; more than 61.5 µM in the assay on MDA-N; 4.78 µM in the assay on NCI-H226 lung; more than 100 µM with OVCAR-8 ovarian; more than 100 µM in the assay with SK-MEL-28 melanoma; more than 90.2 µM in the assay on SK-MEL-5 melanoma. Besides, the TGI was 27.2 µM with SK-OV-3 ovarian, more than 100 µM in the assay on SNB-19 CNS and more than 100 µM in the assay with UO-31 renal.

As to `Cc1cccc(N2C(=O)C3c4[nH]c5ccccc5c4C4CCC(C(C)(C)C)CC4C3C2=O)c1` (centres undefined), the TGI in the assay with A549 NSCLC was 22.3 µM; in the assay on BT-549 breast, 33.5 µM; with CCRF-CEM leukemia it was 23.5 µM; in the assay with EKVX NSCLC, 31.4 µM; in the assay with HCT-116 colon, 21.2 µM; with HOP-62 NSCLC, 13.3 µM. For the same compound, the TGI in the assay on HT29 colon turned out to be 28.9 µM; with LOX IMVI melanoma, 12.9 µM; in the assay on MDA-N, 30.7 µM; with NCI-H226 lung it was 34.1 µM; in the assay with OVCAR-8 ovarian, 13.3 µM; in the assay on SK-MEL-28 melanoma, 31.4 µM. The TGI with SK-MEL-5 melanoma was 28.4 µM; in the assay on SNB-19 CNS, 26 µM; with TK-10 renal, 27.2 µM; with UACC-257 melanoma, 44.6 µM; in the assay with UO-31 renal, 28.6 µM.

With `CC(=O)Oc1c2c(c3n(c1=O)CCCC3)C(=O)N(c1ccccc1)C2=O`, the TGI in the assay on A549 NSCLC, in the assay on BT-549 breast, with CCRF-CEM leukemia, with EKVX NSCLC, with HCT-116 colon and with HOP-62 NSCLC was more than 100 µM each time. Further, the TGI in the assay with HT29 colon, in the assay on LOX IMVI melanoma, with MDA-N, in the assay with NCI-H226 lung, in the assay on OVCAR-8 ovarian and in the assay with SK-MEL-28 melanoma was more than 100 µM throughout. Besides, the TGI in the assay with SK-MEL-5 melanoma, in the assay with SK-OV-3 ovarian, with SNB-19 CNS, in the assay with TK-10 renal and in the assay with UO-31 renal was more than 100 µM in each case.

Source of the values: PubChem BioAssay (NCI).
